In one assay the target is Mu-type opioid receptor (Mus musculus, UniProt P42866). Kind of assay: Displacement of [3H]Naloxone from mouse MOR expressed in CHO cells assessed as dissociation constant incubated for […] by radioligand binding assay. The format is cell-based. (Displacement assays read how much labelled ligand stays bound in the presence of the test substance.)
Assay [1] deals with Kappa-type opioid receptor (Mus musculus, UniProt P33534). Kind of assay: Displacement of [3H]diprenorphine from mouse KOR expressed in CHO cells assessed as dissociation constant incubated for […] by radioligand binding assay. The format is cell-based.
The target in assay [2] is T1, Delta-type opioid receptor (Homo sapiens, UniProt P41143). The assay is described as follows: Displacement of [3H]diprenorphine from human DOR expressed in CHO cells assessed as dissociation constant incubated for […] by radioligand binding assay. In kind it is cell-based.
Assay [3] relates to Mus musculus. The assay is described as follows: Antinociception activity in male Swiss Webster mouse model assessed as increase in maximum possible effect at 10 mg/kg, sc measured after 20 mins by warm-water tail immersion assay relative to control. In kind it is functional.
Assay [4] concerns Mus musculus. The assay is described as follows: Antinociception activity in male Swiss Webster mouse model assessed as increase in maximum possible effect at 10 mg/kg, sc administered as single dose measured after 20 mins in presence of morphine by warm-water tail immersion assay relative to control. In kind it is functional.
For assay [5], the target named is T1, Delta-type opioid receptor. Kind of assay: Agonist activity at human DOR expressed in CHO cells increase in [35S]GTPgammaS binding measured after […] by scintillation counter analysis relative to SNC80. In kind it is functional, cell-based. The following applies: filed as agonist. In general terms: Binding of GTPγS marks nucleotide exchange on a G protein.
The subject of assay [6] is Mus musculus. Kind of assay: Antinociception activity in male Swiss Webster mouse model assessed as increase in maximum possible effect at 0.05 mg/kg, sc measured after 3 to 5 hrs post injection by warm-water tail immersion assay. The format is functional, organism-based. The note with it: time 3-5 hrs.
The subject of assay [7] is Mus musculus. Kind of assay: Antinociception activity in male Swiss Webster mouse model assessed as increase in maximum possible effect at 0.05 mg/kg, sc measured after 30 to 60 mins post injection by warm-water tail immersion assay. In kind it is functional, organism-based. The following applies: time 30-60 min.
Assay [8] deals with T1, Delta-type opioid receptor. Kind of assay: Binding affinity to DOR (unknown origin) assessed as dissociation constant.
Assay [9] addresses T1, Delta-type opioid receptor.
Assay [10] concerns Mus musculus. The assay is described as follows: Antinociception activity in male Swiss Webster mouse model assessed as effective dose administered as sc dose measured after 20 mins by warm-water tail immersion assay. The format is functional.
The species entered for assay [11] is Mus musculus. The assay is described as follows: Selectivity ratio of Kd for mouse MOR to Kd for mouse KOR.

Active and inactive are the calls of the source. The calls are words filed in the database; no cut-off is given here.

What is called Kd is a measure of binding affinity in units of concentration. By Emax is commonly meant the size of the effect at its maximum, as opposed to the concentration needed. One may read the EC50 as the concentration giving half of the maximal effect. In general, ED50 refers to the midpoint of the dose-response relation.

Sequence of Kappa-type opioid receptor (P33534 whole entry): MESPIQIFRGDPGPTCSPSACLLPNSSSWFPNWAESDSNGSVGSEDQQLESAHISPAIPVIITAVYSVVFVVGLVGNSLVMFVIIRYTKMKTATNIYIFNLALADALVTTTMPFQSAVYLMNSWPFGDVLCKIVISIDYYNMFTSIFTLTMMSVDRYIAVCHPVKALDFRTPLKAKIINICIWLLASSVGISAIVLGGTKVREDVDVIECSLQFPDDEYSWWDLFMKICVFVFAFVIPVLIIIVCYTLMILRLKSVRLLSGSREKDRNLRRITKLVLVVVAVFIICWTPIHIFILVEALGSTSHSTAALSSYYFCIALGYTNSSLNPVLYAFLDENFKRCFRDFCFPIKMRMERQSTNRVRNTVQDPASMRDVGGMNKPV
Sequence of Mu-type opioid receptor (P42866 whole entry): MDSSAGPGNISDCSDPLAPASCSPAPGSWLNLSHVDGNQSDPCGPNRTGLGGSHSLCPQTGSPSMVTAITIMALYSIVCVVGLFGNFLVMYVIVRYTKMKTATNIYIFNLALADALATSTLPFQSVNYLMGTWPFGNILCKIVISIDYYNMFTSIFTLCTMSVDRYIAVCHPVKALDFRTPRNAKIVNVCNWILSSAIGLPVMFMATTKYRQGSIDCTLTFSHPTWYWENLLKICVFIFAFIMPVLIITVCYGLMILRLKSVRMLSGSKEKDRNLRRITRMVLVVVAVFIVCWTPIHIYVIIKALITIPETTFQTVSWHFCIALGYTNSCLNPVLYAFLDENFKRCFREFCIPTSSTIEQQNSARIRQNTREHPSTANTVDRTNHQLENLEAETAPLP
T1 sequence (P41143 whole entry): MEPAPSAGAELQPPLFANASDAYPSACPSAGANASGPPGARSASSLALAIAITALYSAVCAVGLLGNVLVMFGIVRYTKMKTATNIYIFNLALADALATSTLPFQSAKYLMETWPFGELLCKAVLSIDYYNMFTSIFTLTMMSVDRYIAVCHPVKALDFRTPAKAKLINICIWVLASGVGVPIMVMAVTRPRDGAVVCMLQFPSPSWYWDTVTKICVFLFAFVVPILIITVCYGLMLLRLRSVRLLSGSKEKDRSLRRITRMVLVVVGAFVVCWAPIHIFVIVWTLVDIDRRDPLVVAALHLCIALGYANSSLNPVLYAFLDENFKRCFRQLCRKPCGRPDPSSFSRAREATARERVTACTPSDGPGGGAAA

`CN(C(=O)CCc1ccco1)[C@H]1CC[C@@]2(O)[C@H]3Cc4cccc5c4[C@@]2(CCN3CC2CC2)[C@H]1O5.Cl`: the Kd was found to be 14.1 nM on Mu-type opioid receptor, 1 nM in [1] and 46.8 nM in assay [2]. The MPE with Mus musculus [3] is given as 40%.
Turning to `Cl.O=C(CCc1ccco1)N[C@H]1CC[C@@]2(O)[C@H]3Cc4cccc5c4[C@@]2(CCN3CC2CC2)[C@H]1O5`, the dissociation constant (Kd) on Mu-type opioid receptor worked out at 53.1 nM; in [1], 73.8 nM; in [2], 90.2 nM. In addition, the MPE entry in the assay with Mus musculus [3] is recorded as “<=40%”; with Mus musculus [4], 80%.
With `Cl.O=C(/C=C/c1ccco1)N[C@@H]1CC[C@@]2(O)[C@H]3Cc4cccc5c4[C@@]2(CCN3CC2CC2)[C@H]1O5`, the Kd is 42.4 nM on Mu-type opioid receptor, 7.03 nM in assay [1] and 551 nM in [2]. The maximal response (Emax) in assay [5] was determined as 81%. In addition, the MPE entry in the assay with Mus musculus [3] was “<=40%”; with Mus musculus [4], 100%.
As for `CN(C(=O)CCc1ccoc1)[C@H]1CC[C@@]2(O)[C@H]3Cc4cccc5c4[C@@]2(CCN3CC2CC2)[C@H]1O5.Cl`, the results for the Kd (on Mu-type opioid receptor; in assay [1]; in assay [2]) were 7.74 nM, 0.48 nM and 48.6 nM, respectively. Also, the MPE in the assay on Mus musculus [3] is reported as 80%.
With `CN(C(=O)/C=C/c1ccco1)[C@@H]1CC[C@@]2(O)[C@H]3Cc4cccc5c4[C@@]2(CCN3CC2CC2)[C@H]1O5.Cl`, the dissociation constant Kd came out at 215 nM on Mu-type opioid receptor, 4.11 nM in assay [1] and 2260 nM in assay [2]. Further, in assay [5], the maximal response (Emax) came to 82.1%. Besides, the MPE in the assay on Mus musculus [3] is 40%.
For `Cl.O=C(/C=C/c1ccco1)N[C@@H]1CC[C@@]2(O)[C@H]3Cc4ccc(O)c5c4[C@@]2(CCN3CC2CC2)[C@H]1O5`, the results for the Kd (on Mu-type opioid receptor; in [1]; in [2]) were 0.3 nM, 0.17 nM and 12.8 nM, respectively. In the assay with Mus musculus [3], the MPE is on record as 80%.
For `Cl.O=C(/C=C/c1ccco1)N[C@H]1CC[C@@]2(O)[C@H]3Cc4ccc(O)c5c4[C@@]2(CCN3CC2CC2)[C@H]1O5` the same measures were 0.53 nM, 1.08 nM, 8.75 nM and 100%.
Turning to `Cl.O=C(CCc1ccco1)N[C@@H]1CC[C@@]2(O)[C@H]3Cc4ccc(O)c5c4[C@@]2(CCN3CC2CC2)[C@H]1O5`, the values for the Kd (at Mu-type opioid receptor; in [1]; in assay [2]) were 0.28 nM, 0.61 nM and 33 nM, respectively. Besides, the MPE result is “<=40%” in the assay with Mus musculus [3] and 40% in the assay with Mus musculus [4].
For `CN(C(=O)CCc1ccoc1)[C@@H]1CC[C@@]2(O)[C@H]3Cc4cccc5c4[C@@]2(CCN3CC2CC2)[C@H]1O5.Cl` the same measures were 43.8 nM, 34.5 nM, 891 nM, “<=40%” and 100%.
Consider `Cl.O=C(CCc1ccoc1)N[C@@H]1CC[C@@]2(O)[C@H]3Cc4cccc5c4[C@@]2(CCN3CC2CC2)[C@H]1O5`, for which the Kd on Mu-type opioid receptor was determined as 17.3 nM; in [1], 8.37 nM; in assay [2], 749 nM. Also, the MPE with Mus musculus [3] is 40%.
In the same order, the values of `CN(C(=O)CCc1ccco1)[C@@H]1CC[C@@]2(O)[C@H]3Cc4ccc(O)c5c4[C@@]2(CCN3CC2CC2)[C@H]1O5.Cl` are 0.66 nM, 0.32 nM, 7.32 nM and 100%.
Consider `CN(C(=O)/C=C/c1ccco1)[C@H]1CC[C@@]2(O)[C@H]3Cc4cccc5c4[C@@]2(CCN3CC2CC2)[C@H]1O5.Cl`, for which the Kd was determined as 16.8 nM at Mu-type opioid receptor, 0.62 nM in [1] and 68.4 nM in assay [2]. For the same molecule, in assay [5], the maximal effect (Emax) was found to be 102%. Further, the MPE in the assay on Mus musculus [3] is on record as 80%.
For the molecule `C=CCN1CC[C@]23c4c5ccc(O)c4O[C@H]2C(=O)CC[C@@]3(O)[C@H]1C5` [NALOXONE], the MPE result with Mus musculus [4] was “<=40%”.
With `CN(C(=O)CCc1ccco1)[C@H]1CC[C@@]2(O)[C@H]3Cc4ccc(O)c5c4[C@@]2(CCN3CC2CC2)[C@H]1O5.Cl`, the values for the dissociation constant Kd (at Mu-type opioid receptor; in [1]; in assay [2]) were 0.15 nM, 0.12 nM and 0.37 nM, respectively. In addition, the MPE in the assay with Mus musculus [3] stood at 100%.
Regarding `CN1CC[C@]23c4c5ccc(O)c4O[C@H]2[C@@H](O)C=C[C@H]3[C@H]1C5`, the outcome with Mus musculus [6] was inactive. The outcome in the assay on Mus musculus [7] was Active.
`CN(C(=O)/C=C/c1ccoc1)[C@H]1CC[C@@]2(O)[C@H]3Cc4ccc(O)c5c4[C@@]2(CCN3CC2CC2)[C@H]1O5.Cl`: the Kd in [8] is 0.64 nM. For the same molecule, in [9], the midpoint of the response, the EC50, lay at 2.68 nM. Besides, the ED50 in the assay on Mus musculus [10] is 0.037 mg/kg. Besides, in the assay with Mus musculus [3], the MPE is reported as 100%.
Regarding `Cl.O=C(/C=C/c1ccco1)N[C@H]1CC[C@@]2(O)[C@H]3Cc4cccc5c4[C@@]2(CCN3CC2CC2)[C@H]1O5`, the results for the Kd (on Mu-type opioid receptor; in assay [1]; in [2]) were 107 nM, 249 nM and 456 nM, respectively. Besides, the Ratio in the assay listed under Mus musculus [11] was found to be 0. For the same molecule, the MPE entry in the assay on Mus musculus [3] is “<=40%”; in the assay with Mus musculus [4], 100%.
For the molecule `Cl.O=C(CCc1ccco1)N[C@@H]1CC[C@@]2(O)[C@H]3Cc4cccc5c4[C@@]2(CCN3CC2CC2)[C@H]1O5`, the Kd at Mu-type opioid receptor worked out at 27.5 nM; in assay [1], 23.6 nM; in assay [2], 800 nM. Also, in the assay with Mus musculus [3], the MPE is given as 40%.
For `CN(C(=O)CCc1ccoc1)[C@H]1CC[C@@]2(O)[C@H]3Cc4ccc(O)c5c4[C@@]2(CCN3CC2CC2)[C@H]1O5.Cl` the same measures were 0.18 nM, 0.13 nM, 0.59 nM and 40%.
`Cl.O=C(CCc1ccoc1)N[C@@H]1CC[C@@]2(O)[C@H]3Cc4ccc(O)c5c4[C@@]2(CCN3CC2CC2)[C@H]1O5`: the dissociation constant Kd on Mu-type opioid receptor amounted to 0.21 nM. For the same molecule, the MPE result in the assay with Mus musculus [3] was “<=40%”.
As to `CN(C(=O)CCc1ccco1)[C@@H]1CC[C@@]2(O)[C@H]3Cc4cccc5c4[C@@]2(CCN3CC2CC2)[C@H]1O5.Cl`, the Kd on Mu-type opioid receptor was 93.6 nM; in assay [1] it was 50.4 nM; in assay [2], 532 nM. Moreover, the MPE in the assay with Mus musculus [3] turned out to be 40%.
For the molecule `CN(C(=O)CCc1ccoc1)[C@@H]1CC[C@@]2(O)[C@H]3Cc4ccc(O)c5c4[C@@]2(CCN3CC2CC2)[C@H]1O5.Cl`, the Kd stood at 0.53 nM on Mu-type opioid receptor, 0.28 nM in assay [1] and 8.42 nM in [2]. Further, the MPE in the assay on Mus musculus [3] was 100%.
For the molecule `Cl.O=C(CCc1ccoc1)N[C@H]1CC[C@@]2(O)[C@H]3Cc4ccc(O)c5c4[C@@]2(CCN3CC2CC2)[C@H]1O5`, on Mu-type opioid receptor, the Kd is 0.44 nM. Further, the values for the MPE entry in the assay on Mus musculus [3] and in the assay on Mus musculus [4] were “<=40%” and 100%, respectively.
Take `Cl.O=C(CCc1ccoc1)N[C@H]1CC[C@@]2(O)[C@H]3Cc4cccc5c4[C@@]2(CCN3CC2CC2)[C@H]1O5`: the values for the Kd (on Mu-type opioid receptor; in assay [1]; in [2]) were 54.5 nM, 161 nM and 154 nM, respectively. The Ratio in the assay filed under Mus musculus [11] worked out at 0. The same molecule displayed an Emax in assay [5] of 93.1%. Also, the MPE result with Mus musculus [3] is “<=40%”; in the assay with Mus musculus [4], 80%.
Turning to `Cl.O=C(CCc1ccco1)N[C@H]1CC[C@@]2(O)[C@H]3Cc4ccc(O)c5c4[C@@]2(CCN3CC2CC2)[C@H]1O5`, the equilibrium dissociation constant (Kd) on Mu-type opioid receptor came out at 0.72 nM. Also, the MPE result in the assay on Mus musculus [3] is given as “<=40%”.

Source of the values: ChEMBL document CHEMBL5506068 (J Med Chem, 2024).
